Source: article PMC8279479, “Application of Alanine Scanning to Determination of Amino Acids Essential for Peptide Adsorption at the Solid/Solution Interface and Binding to the Receptor: Surface-Enhanced Raman/Infrared Spectroscopy versus Bioactivity Assays” (Journal of Medicinal Chemistry, 2021)
Where no end group is shown, it is not given here.

Columns and labels:
human BB2 receptor = human BB2 receptor (Homo sapiens, UniProt P30550); assay: Intracellular inositol monophosphate (IP-One HTRF) assay, HEK-293 cells overexpressing BB2 receptor; type: cell-based; settings: BB2R HEK-293
human BB2 receptor, sequence (P30550 whole entry): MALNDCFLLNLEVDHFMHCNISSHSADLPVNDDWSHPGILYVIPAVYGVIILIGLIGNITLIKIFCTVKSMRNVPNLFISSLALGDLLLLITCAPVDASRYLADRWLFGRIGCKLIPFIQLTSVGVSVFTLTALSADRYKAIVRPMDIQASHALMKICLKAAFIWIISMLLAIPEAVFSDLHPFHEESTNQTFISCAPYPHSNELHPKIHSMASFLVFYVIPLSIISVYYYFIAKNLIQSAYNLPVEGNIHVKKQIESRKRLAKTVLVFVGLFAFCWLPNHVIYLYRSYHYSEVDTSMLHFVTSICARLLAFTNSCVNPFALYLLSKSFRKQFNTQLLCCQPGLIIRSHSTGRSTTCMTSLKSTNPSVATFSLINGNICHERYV
Method: (§1) Additionally, reference compounds BIM23042 and PD176252 (both from Tocris) antagonists of BB1 and BB2 receptors were used in a concentration of 10 μM (Figure 7).
(§2) The human BB1 receptor NM_002511.3 (GenScript) and BB2 receptor NM_002091 (cDNA Resource Center) sequences in pcDNA 3.1 + plasmids were introduced into the host cell by lipofection (Lipofectamine Reagent 3000, Thermo Fisher Scientific). Then, the transfected cells were selected with G-418 antibiotic at a dose of 500 μg/mL. Cells were grown under standard cell culture conditions (37 °C, 5% CO2) in DMEM supplemented with 10% FBS and Glutamax.
(§3) Receptor activity was determined by measuring the intracellular inositol monophosphate concentration using a homogeneous time-resolved fluorescence IP-one kit from Cis-bio, according to the manual. Briefly, 24 h before assay, cells were grown in an FBS-free DMEM medium. Then, the cells were scraped and centrifuged. The cell pellet was suspended in Hanks-HEPES (130 mM NaCl, 5.4 mM KCl, 1.8 mM CaCl2, 0.8 mM MgSO4, 0.9 mM NaH2PO4, 20 mM HEPES, LiCl 50 mM, and 3.25 mM glucose; pH 7.4). […] The cell suspension was then mixed with 5 μL of the IP1-acceptor conjugate and 5 μL of the anti-IP1-donor conjugate. After 1 h incubation at RT, fluorescence was read at 620 and 665 nm (Tecan; Infinite M1000). Results were calculated as the ratio (665 nm/620 nm) multiplied by 10^4. The signal was inversely proportional to the concentration of IP1 in the samples. Each sample was prepared in triplicate. Data were analyzed using GraphPad Prism version 5.04 for Windows (GraphPad software).

human BB1 receptor = human BB1 receptor (Homo sapiens, UniProt P28336); assay: Intracellular inositol monophosphate (IP-One HTRF) assay, HEK-293 cells overexpressing BB1 receptor; type: cell-based; settings: BB1R HEK-293
human BB1 receptor, sequence (P28336 whole entry): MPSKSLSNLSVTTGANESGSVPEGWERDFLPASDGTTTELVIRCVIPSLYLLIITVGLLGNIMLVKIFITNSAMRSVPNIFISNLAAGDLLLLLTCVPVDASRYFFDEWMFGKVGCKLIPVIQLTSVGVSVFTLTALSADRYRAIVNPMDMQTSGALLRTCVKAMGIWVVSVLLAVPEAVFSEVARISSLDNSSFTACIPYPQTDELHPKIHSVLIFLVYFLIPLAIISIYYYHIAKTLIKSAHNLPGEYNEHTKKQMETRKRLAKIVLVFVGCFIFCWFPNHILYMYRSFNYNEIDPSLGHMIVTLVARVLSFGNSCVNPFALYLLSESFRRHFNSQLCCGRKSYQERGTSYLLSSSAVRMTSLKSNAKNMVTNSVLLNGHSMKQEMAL
Method: as §1, §2, §3

Agonist effect of compound alone on intracellular IP1 (human BB2 receptor; compound alone 25 μM, 1 h, 37 °C (Figure 7B)) | Agonist effect of compound alone on intracellular IP1 (human BB1 receptor; compound alone 25 μM, 1 h, 37 °C (Figure 7A)) | Compound | Effect of reference antagonist alone on basal receptor activity (IP1) (human BB2 receptor; reference compound 10 μM alone (Figure 7B)) | Effect of reference antagonist on IP1 concentration in the presence of agonist (human BB2 receptor; reference compound 10 μM with BN 150 nM (Figure 7B)) | Effect of reference antagonist alone on basal receptor activity (IP1) (human BB1 receptor; reference compound 10 μM alone (Figure 7A)) | Effect of reference antagonist on IP1 concentration in the presence of agonist (human BB1 receptor; reference compound 10 μM with BN 150 nM (Figure 7A))
– | – | COc1ccc(C2(CNC(=O)[C@](C)(Cc3c[nH]c4ccccc34)NC(=O)Nc3ccc([N+](=O)[O-])cc3)CCCCC2)nc1 [PD176252] | inhibited the basal activity | significantly reduced its level | inhibited the basal activity | downregulated IP1 concentration to control level
little change in the activity | little change in the activity | Asn-Gln-Ala-Ala-Val-Gly-His-Leu-Met-NH2 (NQAAVGHLM-NH2) [[Ala^3]BN^6–14] | – | – | – | –
